In US20080076927A1, “Synthetic Methods and Intermediates for Stereoisomeric Compounds Useful for the Treatment of Gastrointestinal and Central Nervous System Disorders” (ARYx Therapeutics, Inc., priority 2005, published 2008):
Where two headings read alike, the source gives them in different places. Values belong to the compound of their own block, whether it stands above or below them.

Legend:
[1] = format: in vitro ADME, human; settings: for dependence of metabolism on NADPH / CYP450: microsomes
Protocol: ATI-7505 (2 μM) was incubated with human microsomal protein (1 mg) in the presence or absence of NADPH regenerating system (cofactor).
Thus the major biotransformation pathway for ATI-7505 occurs independently of CYP450 enzymes.
The metabolism of these compounds was studied in pooled human microsomes in the presence and absence of the Cytochrome P-450 cofactor NADPH and both the disappearance of parent and the appearance of the corresponding acid metabolite, i.e., the corresponding compound-II isomer, monitored with time.
In this experiment, the amount of substrate (compounds III, IV, V, and VI) remaining in the reaction after 5, 60, and 90 minutes were evaluated by a tandem HPLC-MS method. This remaining amount was correlated with the appearance of the metabolite compound II.

CYP3A4 = CYP3A4 (Homo sapiens, UniProt P08684); settings: recombinant enzyme
2D6 = 2D6 (Homo sapiens, UniProt P10635)
2C9 = 2C9 (Homo sapiens, UniProt P11712)
[2] = tested on: isolated, perfused guinea pig hearts
5-HT4 Receptor [3] = biological target: T1, 5-HT4 Receptor (Cavia porcellus, UniProt O70528); experiment: 5-HT4 Receptor Binding, Guinea Pig Striatum, [3H]GR113808; parameters: Guinea Pig Striatum; from tissue; host or cells: guinea pig striatum
5-HT4 Receptor [4] = biological target: T1, 5-HT4 Receptor; experiment: 5-HT4 receptor binding of the isomers of compound I, radiolabel displacement method; settings: read-out: binding constant Ki
human 5-HT4 receptor = biological target: T2, human 5-HT4 receptor (Homo sapiens, UniProt Q13639); experiment: adenylyl cyclase stimulation in cells engineered to stably express human 5-HT4 receptor; format: cell-based; settings: for Efficacy % of 5HT (serotonin): estimated Emax relative to 5-HT
T2 construct: expressed in transfected cells
Text: ARYx performed in vitro assays based on adenylyl cyclase stimulation in cells engineered to stably express human 5-HT4 receptor. […] [table]

[5] = biological target: T3, human IKr (HERG K+ channels) (Homo sapiens, UniProt Q12809); experiment: whole cell patch-clamp of IKr in HEK-293 cells expressing the HERG K+ channels; format: cell-based
T3 construct: expressed in transfected cells; host or cells: HEK-293

[6] = Metabolism in Fresh Human Blood; format: in vitro ADME; settings: for Half-life: 100 µM
Protocol: Fresh blood was collected into heparinized tubes from 3 human donors and blood was stored on ice until incubation. Separate aliquots of blood from each donor were pipetted into 1.5 mL centrifuge tubes and the tubes were pre-incubated in a shaking water bath at 37° C. for 5 minutes. The reaction was initiated by the addition of 10 μL of the appropriate test compound stock to each tube (final concentration=100 μM). Incubations were quenched after 0, 5, 15, 30 and 60 minutes, by the addition of acetonitrile ([…]), centrifuged at 12,000 rpm for 2 minutes and the supernatant analyzed on an Agilent 1100 HPLC system. Separations were accomplished on a Keystone Intersil ODS2, 250×4.6 mm, […] column. The aqueous mobile phase consisted of 20 mM ammonium acetate buffer (pH 5.7) and the organic phase acetonitrile. A gradient was used: initial condition consisted of 20% acetonitrile for 1 minute. […] The system was then recycled to initial conditions over the course of 1 minute and held there for 4 minutes before the next injection. […] The results were expressed as amount of initial compound remaining and data subjected to kinetic analysis using WinNonLin. The half-lives for the individual compounds are given below in Table 6.

fasted, conscious dogs = settings: for antral and small bowel contractility, colonic motor activity / prokinetic effects in the dog gut: IV and PO; for migrating motor complex (MMC) characteristics: antrum, proximal, mid and distal small intestine
[7] = tested on: esterases in human plasma
fed dogs = experiment: gastric emptying in fed conscious dogs (time of MMC return); settings: IV infusion over 20 minutes before a solid meal
[8] = in vivo; cited from earlier work
[9] = July 1993 to December 1999; cited from earlier work
[10] = tested at 10, 100, 1,000, and 10,000 nM

T1 sequence (O70528 whole entry): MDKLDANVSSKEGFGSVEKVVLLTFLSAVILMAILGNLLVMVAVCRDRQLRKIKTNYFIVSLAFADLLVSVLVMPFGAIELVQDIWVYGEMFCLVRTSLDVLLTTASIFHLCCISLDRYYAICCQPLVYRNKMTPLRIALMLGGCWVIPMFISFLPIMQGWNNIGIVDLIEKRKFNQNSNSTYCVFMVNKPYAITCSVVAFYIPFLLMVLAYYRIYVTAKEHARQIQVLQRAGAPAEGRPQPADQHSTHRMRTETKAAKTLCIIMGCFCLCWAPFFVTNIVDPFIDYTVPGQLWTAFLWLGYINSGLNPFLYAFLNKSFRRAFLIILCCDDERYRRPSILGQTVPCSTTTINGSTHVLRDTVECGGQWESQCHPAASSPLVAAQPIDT
T3 sequence (Q12809 whole entry): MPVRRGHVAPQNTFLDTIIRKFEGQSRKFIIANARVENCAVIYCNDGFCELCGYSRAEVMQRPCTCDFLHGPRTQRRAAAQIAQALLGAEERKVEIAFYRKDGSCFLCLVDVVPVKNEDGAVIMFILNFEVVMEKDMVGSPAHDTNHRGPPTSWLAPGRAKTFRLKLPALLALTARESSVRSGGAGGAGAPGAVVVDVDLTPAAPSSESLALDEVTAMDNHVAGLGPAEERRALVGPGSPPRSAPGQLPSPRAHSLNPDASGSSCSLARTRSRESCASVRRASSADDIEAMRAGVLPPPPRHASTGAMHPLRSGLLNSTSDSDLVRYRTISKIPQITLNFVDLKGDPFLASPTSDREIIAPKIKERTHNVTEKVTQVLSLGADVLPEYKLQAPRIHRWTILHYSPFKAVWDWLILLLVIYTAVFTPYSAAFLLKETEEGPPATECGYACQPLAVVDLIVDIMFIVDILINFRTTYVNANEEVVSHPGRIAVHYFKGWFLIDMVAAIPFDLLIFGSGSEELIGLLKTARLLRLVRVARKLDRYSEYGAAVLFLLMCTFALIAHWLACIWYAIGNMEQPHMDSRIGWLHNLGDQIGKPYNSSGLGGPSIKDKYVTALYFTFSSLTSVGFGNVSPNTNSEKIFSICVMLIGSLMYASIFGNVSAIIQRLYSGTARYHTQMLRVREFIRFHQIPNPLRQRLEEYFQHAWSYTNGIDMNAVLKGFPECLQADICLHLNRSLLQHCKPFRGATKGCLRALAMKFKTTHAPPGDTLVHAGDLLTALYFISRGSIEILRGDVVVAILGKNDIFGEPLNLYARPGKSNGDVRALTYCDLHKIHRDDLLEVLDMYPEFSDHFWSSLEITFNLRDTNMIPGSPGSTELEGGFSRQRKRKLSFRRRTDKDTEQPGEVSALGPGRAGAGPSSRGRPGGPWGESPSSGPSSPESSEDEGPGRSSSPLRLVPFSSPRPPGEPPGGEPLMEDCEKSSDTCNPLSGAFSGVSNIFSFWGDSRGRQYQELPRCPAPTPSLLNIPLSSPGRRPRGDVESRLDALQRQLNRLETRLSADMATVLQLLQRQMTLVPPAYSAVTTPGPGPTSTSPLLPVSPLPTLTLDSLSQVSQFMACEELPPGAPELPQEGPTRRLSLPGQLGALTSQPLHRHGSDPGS
T2 sequence (Q13639 whole entry): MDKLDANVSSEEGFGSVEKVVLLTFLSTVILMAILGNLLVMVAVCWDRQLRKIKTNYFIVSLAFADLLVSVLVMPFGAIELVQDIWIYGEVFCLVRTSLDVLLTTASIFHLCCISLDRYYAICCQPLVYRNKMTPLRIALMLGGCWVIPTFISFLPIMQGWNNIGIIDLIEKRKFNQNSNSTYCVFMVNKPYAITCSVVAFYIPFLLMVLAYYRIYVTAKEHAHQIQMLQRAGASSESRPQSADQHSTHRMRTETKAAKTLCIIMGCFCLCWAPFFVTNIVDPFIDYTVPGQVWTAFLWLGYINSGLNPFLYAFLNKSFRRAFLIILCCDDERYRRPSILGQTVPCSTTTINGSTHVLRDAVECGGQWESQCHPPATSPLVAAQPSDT
Chain of 2D6 (P10635 whole entry): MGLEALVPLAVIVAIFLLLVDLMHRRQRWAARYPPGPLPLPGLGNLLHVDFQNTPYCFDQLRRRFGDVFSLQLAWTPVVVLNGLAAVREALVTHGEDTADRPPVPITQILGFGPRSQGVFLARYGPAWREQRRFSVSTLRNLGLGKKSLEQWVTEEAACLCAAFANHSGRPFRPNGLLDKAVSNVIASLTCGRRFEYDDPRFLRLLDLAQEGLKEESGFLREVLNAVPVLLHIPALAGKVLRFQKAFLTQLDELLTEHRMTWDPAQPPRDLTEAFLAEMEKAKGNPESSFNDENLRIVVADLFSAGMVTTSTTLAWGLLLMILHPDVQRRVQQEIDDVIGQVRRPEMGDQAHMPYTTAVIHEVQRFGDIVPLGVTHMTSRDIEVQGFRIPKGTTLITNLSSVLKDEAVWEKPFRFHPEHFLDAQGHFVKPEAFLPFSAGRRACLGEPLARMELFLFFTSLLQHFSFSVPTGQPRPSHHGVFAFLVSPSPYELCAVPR
Chain of CYP3A4 (P08684 whole entry): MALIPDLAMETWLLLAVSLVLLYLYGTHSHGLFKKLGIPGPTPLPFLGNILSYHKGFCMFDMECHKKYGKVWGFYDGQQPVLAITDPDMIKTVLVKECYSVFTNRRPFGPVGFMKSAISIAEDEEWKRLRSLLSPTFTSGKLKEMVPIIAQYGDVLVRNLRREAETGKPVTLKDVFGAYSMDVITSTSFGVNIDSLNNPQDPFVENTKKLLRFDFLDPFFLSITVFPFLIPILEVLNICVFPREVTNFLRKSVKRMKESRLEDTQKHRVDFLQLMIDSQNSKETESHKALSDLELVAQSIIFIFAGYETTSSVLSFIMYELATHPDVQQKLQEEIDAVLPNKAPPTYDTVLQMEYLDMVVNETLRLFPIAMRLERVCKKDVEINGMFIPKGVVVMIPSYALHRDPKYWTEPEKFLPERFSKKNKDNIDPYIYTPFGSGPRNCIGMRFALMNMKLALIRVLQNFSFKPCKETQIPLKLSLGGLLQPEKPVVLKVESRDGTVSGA
Chain of 2C9 (P11712 whole entry, the tested form may be a part): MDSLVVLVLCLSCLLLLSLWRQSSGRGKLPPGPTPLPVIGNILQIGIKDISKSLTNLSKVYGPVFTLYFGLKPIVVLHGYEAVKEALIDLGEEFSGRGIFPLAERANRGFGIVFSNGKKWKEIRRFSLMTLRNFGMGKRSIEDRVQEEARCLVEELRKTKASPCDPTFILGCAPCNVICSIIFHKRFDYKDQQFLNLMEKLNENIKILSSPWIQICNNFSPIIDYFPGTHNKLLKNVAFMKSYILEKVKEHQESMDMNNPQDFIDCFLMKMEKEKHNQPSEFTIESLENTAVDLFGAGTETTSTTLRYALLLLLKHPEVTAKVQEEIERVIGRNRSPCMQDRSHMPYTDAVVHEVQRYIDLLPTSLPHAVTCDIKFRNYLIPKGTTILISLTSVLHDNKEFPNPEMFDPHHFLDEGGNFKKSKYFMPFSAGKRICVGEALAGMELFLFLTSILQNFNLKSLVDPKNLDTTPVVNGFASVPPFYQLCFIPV

IC50 (5-HT4 Receptor [3]; Guinea Pig Striatum, [3H]GR113808 (0.70 nM), read-out: IC50): > 3000 nM
Ki (5-HT4 Receptor [3]; Guinea Pig Striatum, [3H]GR113808 (0.70 nM), read-out: Ki): > 500 nM
Structure (SMILES): COc1cc(N)c(Cl)cc1C(=O)N[C@@H]1CCN(CCCCCC(=O)O)C[C@@H]1OC [ATI-7500, 6-((3S,4R)-4-(4-amino-5-chloro-2-methoxybenzamido)-3-methoxypiperidin-1-yl)hexanoic acid]
biotransformation in pooled human microsomes [1]: does not appear to be subject to further metabolism
inhibitory activity against CYP3A4 (CYP3A4): Neither ATI-7505 nor its primary metabolite, ATI-7500 displayed significant inhibitory activity
inhibitory activity against 2D6 (2D6; human): Neither ATI-7505 nor its primary metabolite, ATI-7500 displayed significant inhibitory activity
inhibitory activity against 2C9 (2C9): Neither ATI-7505 nor its primary metabolite, ATI-7500 displayed significant inhibitory activity
modulation of cardiac electrophysiologic parameters [2]: entirely lacked electrophysiological activity

Structure (SMILES): COc1cc(N)c(Cl)cc1C(=O)N[C@@H]1CCN(CCCCCC(=O)O[C@H]2CN3CCC2CC3)C[C@@H]1OC [ATI-7505, (R)-quinuclidin-3-yl 6-((3S,4R)-4-(4-amino-5-chloro-2-methoxybenzamido)-3-methoxypiperidin-1-yl)hexanoate]
Ki (5-HT4 Receptor [4]): 1.4 nM
5-HT4 receptor agonism (human 5-HT4 receptor): highly potent 5-HT4 receptor agonist
EC50 (human 5-HT4 receptor; Potency EC50, concentration causing 50% maximal increase in adenylyl cyclase activity, estimated, unit nM printed in b338 only): 4 nM
EC50 (human 5-HT4 receptor; Potency pEC50, negative logarithm of the EC50): 3.55 nM
Efficacy % of 5HT (serotonin) (human 5-HT4 receptor): 85%
EC50 fold lower than that of ATI-7500 (human 5-HT4 receptor; versus ATI-7500): approximately 100 fold
EC50 fold lower than that of cisapride (human 5-HT4 receptor; versus cisapride): approximately 10 fold
hydrolysis by esterase in human microsomes [1]: rapidly hydrolyzed by esterase
biotransformation in pooled human microsomes ([1]; human, 2 µM): undergoes biotransformation to a single metabolite, ATI-7500
dependence of metabolism on NADPH / CYP450 ([1]; human): not dependent on CYP450
dependence of metabolism on NADPH / CYP450 [1]: not dependent on the presence of NADPH
IC50 [5]: 24500 nM
% IKr control (10,000 nM) ([5]; 10,000 nM, normalized to % control tail IKr): 78.0%
half-life at 100 µM ([6]; fresh heparinized human blood, Mean ± SD of 3 subjects, 100 μM, 37° C., read-out: Half-life): 8.59 ± 0.077 min
half-life at 100 µM ([6]; fresh heparinized human blood, Subject 1, 100 μM, 37° C., read-out: Half-life): 8.47 min
half-life at 100 µM ([6]; fresh heparinized human blood, Subject 2, 100 μM, 37° C., read-out: Half-life): 8.61 min
half-life at 100 µM ([6]; fresh heparinized human blood, Subject 3, 100 μM, 37° C., read-out: Half-life): 8.58 min
antral and small bowel contractility, colonic motor activity (fasted, conscious dogs): dose-dependent stimulation of antral and small bowel contractility with relatively little effect on colonic motor activity
prokinetic effects in the dog gut (fasted, conscious dogs): caused prokinetic effects in the dog gut
MMC frequency in the proximal small intestine (fasted, conscious dogs; PO, relative to the controls): increased MMC frequency in the proximal small intestine relative to the controls
migrating motor complex (MMC) characteristics (fasted, conscious dogs): minimal effect
frequency of giant migrating contractions (GMC) (fasted, conscious dogs; dog, in vivo): small but significant (p<0.05) increase
potency relative to cisapride on a mg/kg-basis (fasted, conscious dogs; dog, in vivo): approximately twice as potent as cisapride
retrograde giant migrating contractions (RGC) (fasted, conscious dogs; dog, in vivo): not associated with the development of retrograde giant migrating contractions (RGC)
tolerability, side effects (fasted, conscious dogs; dog, in vivo): exhibited no side effects such as diarrhea, anorexia, or weight loss
inhibitory activity against CYP3A4 (CYP3A4): Neither ATI-7505 nor its primary metabolite, ATI-7500 displayed significant inhibitory activity
inhibitory activity against 2D6 (2D6; human): Neither ATI-7505 nor its primary metabolite, ATI-7500 displayed significant inhibitory activity
inhibitory activity against 2C9 (2C9): Neither ATI-7505 nor its primary metabolite, ATI-7500 displayed significant inhibitory activity
modulation of cardiac electrophysiologic parameters [2]: very weak modulator of cardiac electrophysiologic parameters
No Observed Effect Level (NOEL), Combined Parameters ([2]; combined set of 6 cardiac parameters): 1,000 nM
No Observed Effect Level (NOEL), AH Interval [2, 10]: >10,000 nM
No Observed Effect Level (NOEL), HV Interval [2, 10]: 1,000 nM
No Observed Effect Level (NOEL), MAPD90 [2, 10]: 1,000 nM
No Observed Effect Level (NOEL), QRS Interval [2, 10]: >10,000 nM
No Observed Effect Level (NOEL), QT Interval [2, 10]: 1,000 nM
No Observed Effect Level (NOEL), SA Interval [2, 10]: >10,000 nM
rate of metabolism by esterases in human plasma [7]: rapidly metabolized by esterases in human plasma
time of MMC return as an index of gastric emptying (fed dogs): significantly shortened the time of MMC return
IC50 (5-HT4 Receptor [3]): 8.3 nM
Ki (5-HT4 Receptor [3]): 1.4 nM
nH, Hill coefficient (5-HT4 Receptor [3]; Guinea Pig Striatum): 0.7
affinity for the 5-HT4 receptor, fold greater than cisapride (5-HT4 Receptor [3]; versus cisapride): 18 fold
affinity for the 5-HT4 receptor, fold greater than the major metabolite, the carboxylic acid (5-HT4 Receptor [3]; versus major metabolite of ATI-7505): at least 360 fold

Structure (SMILES): COc1cc(N)c(Cl)cc1C(=O)NC1CCN(CCCOc2ccc(F)cc2)CC1OC (stereo not shown) [Cisapride, reference compound]
Efficacy % of 5HT (serotonin) (human 5-HT4 receptor): 77%
% IKr control (10,000 nM) ([5]; human, 10000 nM): 0%
antral and small bowel contractility, colonic motor activity (fasted, conscious dogs): dose-dependent stimulation of antral and small bowel contractility with relatively little effect on colonic motor activity
prokinetic effects in the dog gut (fasted, conscious dogs): caused prokinetic effects in the dog gut
migrating motor complex (MMC) characteristics (fasted, conscious dogs): minimal effect
inhibitory activity against 2D6 (2D6): significant inhibitory activity
No Observed Effect Level (NOEL), Combined Parameters ([2]; guinea pig): 10 nM
part of a dose metabolized by oxidative N-dealkylation or aromatic hydroxylation [8]: More than 90%
deaths reported [9]: 80
serious cardiac arrhythmias reportedly associated [9]: at least 341
nH, Hill coefficient (5-HT4 Receptor [3]; Guinea Pig Striatum): 0.8

Structure (SMILES): COc1cc(N)c(Cl)cc1C(=O)N[C@H]1CCN(CCCCCC(=O)O[C@H]2CN3CCC2CC3)C[C@H]1OC [Compound III, (3R,4S,3′R)-6-[4-(4-Amino-5-chloro-2-methoxy-benzoylamino)-3-methoxy-piperidin-1-yl]-hexanoic acid 1-aza-bicyclo[2.2.2]oct-3-yl ester]
Ki (5-HT4 Receptor [4]): 28 nM
hydrolysis by esterase in human microsomes [1]: rapidly hydrolyzed by esterase
dependence of metabolism on NADPH / CYP450 ([1]; human): not dependent on CYP450
half-life at 100 µM ([6]; blood, Half-life (min)): 12 min
rate of metabolism by esterases in human plasma [7]: rapidly metabolized by esterases in human plasma

Structure (SMILES): COc1cc(N)c(Cl)cc1C(=O)N[C@@H]1CCN(CCCCCC(=O)O[C@@H]2CN3CCC2CC3)C[C@@H]1OC [Compound VI, (3S,4R,3′S)-6-[4-(4-Amino-5-chloro-2-methoxy-benzoylamino)-3-methoxy-piperidin-1-yl]-hexanoic acid 1-aza-bicyclo[2.2.2]oct-3-yl ester]
Ki (5-HT4 Receptor [4]): 3.4 nM
hydrolysis by esterase in human microsomes [1]: quite stable with time
Half-life ([6]; blood): >60 min
half-life at 100 µM ([6]; blood, Half-life (min)): > 60 min
rate of metabolism by esterases in human plasma [7]: undergo a much slower metabolism

Structure (SMILES): COc1cc(N)c(Cl)cc1C(=O)N[C@H]1CCN(CCCCCC(=O)O[C@@H]2CN3CCC2CC3)C[C@H]1OC [Compound V]
Ki (5-HT4 Receptor [4]): 72 nM
hydrolysis by esterase in human microsomes [1]: quite stable with time
Half-life ([6]; blood): >60 min
half-life at 100 µM ([6]; blood, Half-life (min)): > 60 min
rate of metabolism by esterases in human plasma [7]: undergo a much slower metabolism
